Assay results reported in patent US11572369B2, “Bicyclic pyridine compositions and methods of using the same for cancer therapy” (UNIVERSITY OF SOUTH CAROLINA, priority 2019, dated 2023).
Where two headings read alike, the source gives them in different places. Each block holds one molecule with its values, some of them ahead of it.

Columns and labels:
CDK8/19 = experiment: NFκB Activity Assay (NFκB luciferase reporter, parental 293 cells); assay type: cell-based
MV4-11 cells = experiment: MV4-11-Luc proliferation assay; details: Homo sapiens, MV4-11, read-out: Inhibition Potency MV4-11-Luc Assay
[1] = Oral PK in female CD-1 mice, solution formulation; details: oral gavage in solution, 30 mg/kg (15u series) or 16/18 mg/kg (15w series)
in vivo = details: female, CD-1, mouse, serum, po
[2] = test system: alkaline phosphatase (ALPase) in bone marrow stromal cell line ST2; details: cited from earlier work; for ALP activity Assay EC200: concentration that enhances ALPase activity to 200% of control, ST2 cells, Saito (2013)
[3] = test system: PSA expression in CRPC cell line C4-2; experiment: PSA expression in C4-2 cell culture supernatant; assay type: cell-based; details: C4-2 culture supernatant, 4-day treatment, FBS-supplemented regular media, read-out: IC50, suppression of PSA expression
Excerpt: CDK8/19 inhibition decreases the expression of certain androgen-receptor (AR) inducible genes including PSA, the most common marker of prostate cancer, and the growth of castration-refractory prostate cancers (CRPC).

[4] = test system: NFκB activation in CDK8/19-deficient cells; experiment: NFκB reporter assay in CDK8/19 double-knockout 293 reporter cells; details: CDK8/19 double-knockout reporter cells
[5] = Saito, 2013; cited from earlier work
Mouse PK, oral 1 mg/kg = assay type: in vivo; details: female, FVB, serum, mice, oral (gavage) 1 mg/kg; for bioavailability: read-out: Bioavailability (F %)
Mouse PK, intravenous = assay type: in vivo; details: female FVB mice, i.v. 0.5 mg/kg, mixture; for AUC / C0 / Vd / half-life: mouse, serum, iv
Experimental: Pharmacokinetics (PK) Assay. To measure mouse pharmacokinetics (PK), thienopyridine derivatives were dissolved in 5% dextrose and administered to female FVB mice at different dosing conditions; blood samples were collected at different time points and compound concentrations in the serum were measured by LC/MS/MS.

[6] = test system: 4T1 murine triple-negative breast cancer; experiment: 4T1 TNBC lung metastasis survival after primary tumor removal; assay type: in vivo, mouse; details: medicated food (350 ppm) plus one oral dose 50 mg/kg after removal of primary tumor
MYC-CAP-CR cells [7] = experiment: Short-term cell proliferation assay, MYC-CAP-CR; assay type: cell-based, murine; details: androgen-containing media
MYC-CAP-CR cells [8] = experiment: Long-term clonogenic assay, MYC-CaP-CR; assay type: cell-based, murine
MYC-CaP-CR tumors = experiment: MYC-CaP-CR subcutaneous tumors in intact FVB male mice; assay type: in vivo, mouse; details: intact (uncastrated) FVB male mice
[9] = read-out: Inhibition Potency HEK293-NFkB-Luc Assay, read-out: Inhibition Potency HEK238-NFkB-Luc Assay
[10] = parental 293-derived reporter cell line, read-out: NFκB activity Assay IC50

IC50 (MV4-11 cells): 683 nM
Structure (SMILES): CN(C)C(=O)c1ccc(CN2CCCN(c3ccnc4sc(C(N)=O)c(N)c34)CC2)cc1 [compound 6269]
IC50 (CDK8/19; [9]): 1000 nM

Structure (SMILES): CN(CCCNC(=O)OC(C)(C)C)C(=O)c1ccc(N2CCCN(c3ccnc4sc(C(N)=O)c(N)c34)CC2)cc1 [compound 6292]
IC50 (CDK8/19; [9]): 594 nM

IC50 (MV4-11 cells): 42 nM
Structure (SMILES): CN1CCN(C(=O)c2ccc(N3CCCN(c4ccnc5sc(C(N)=O)c(N)c45)CC3)cc2)CC1 [compound 6268]
IC50 (CDK8/19; [9]): 31 nM

PK (AUC 0-8 h) versus undeuterated parent [1]: did not improve the PK
AUC(0-t) (in vivo; 18 mg/kg): 380 ng·h/mL
Structure (SMILES): [2H]C([2H])(C(=O)N(C)C)c1ccc(N2CCCN(c3ccnc4sc(C(N)=O)c(N)c34)CC2)cc1 [15w_D2, 3-amino-4-(4-(4-(2-(dimethylamino)-2-oxoethyl-1,1-d2)phenyl)-1,4-diazepan-1-yl)thieno[2,3-b]pyridine-2-carboxamide]
IC50 (CDK8/19; [9]): 8.8 nM

AUC(0-t) (in vivo; 25 mg/kg): 470 ng·h/mL
IC50 (MV4-11 cells): 31 nM
Structure (SMILES): CN(CCCO)C(=O)c1ccc(N2CCCN(c3ccnc4sc(C(N)=O)c(N)c34)CC2)cc1 [compound 6264, 3-amino-4-(4-(4-((3-hydroxypropyl)(methyl)carbamoyl)phenyl)-1,4-diazepan-1-yl)thieno[2,3-b]pyridine-2-carboxamide]
IC50 (CDK8/19; [9]): 37 nM

IC50 (MV4-11 cells): 79 nM
Structure (SMILES): NC(=O)c1sc2nccc(N3CCCN(c4ccc(C(=O)N5CCNCC5)cc4)CC3)c2c1N [compound 6271]
IC50 (CDK8/19; [9]): 233 nM

Structure (SMILES): COc1ccc(N2CCCN(c3ccnc4sc(C(N)=O)c(N)c34)CC2)cc1 [15q]
IC50 (CDK8/19; [10]): 43.1 nM
ALP activity Assay EC200 [2]: 115.4 nM

IC50 ([3]; 96 h): 15.7 nM
AUC(0-t) (in vivo; 16 mg/kg): 400 ng·h/mL
AUC (Mouse PK, oral 1 mg/kg): 29.2 ng·h/mL
half-life (Mouse PK, oral 1 mg/kg): 18 min
Structure (SMILES): CN(C)C(=O)Cc1ccc(N2CCCN(c3ccnc4sc(C(N)=O)c(N)c34)CC2)cc1 [15w, 3-amino-4-(4-(4-(2-(dimethylamino)-2-oxoethyl)phenyl)-1,4-diazepan-1-yl)thieno[2,3-b]pyridine-2-carboxamide]
IC50 (CDK8/19; [9]): 4.1 nM
bone anabolic activity in a cell-based assay ([2]; Saito, 2013): highest bone anabolic activity
ALP activity Assay EC200 [2]: 6.6 nM
effect on NFκB activation in CDK8/19-deficient cells [4]: no effect
pharmacokinetics [5]: poor pharmacokinetics (PK) with low Cmax

IC50 (MV4-11 cells): 83 nM
Structure (SMILES): NC(=O)c1sc2nccc(N3CCCN(c4ccc(C(=O)NCCCO)cc4)CC3)c2c1N [compound 6263]
IC50 (CDK8/19; [9]): 169 nM

Structure (SMILES): CN(C)C(=O)c1ccc(N2CCCN(c3ccnc4oc(C(N)=O)c(N)c34)CC2)cc1 [compound 6318]
IC50 (CDK8/19; [9]): > 1000 nM

Elimination rate (Mouse PK, intravenous): 4.33 h⁻¹
AUC (Mouse PK, intravenous): 61.2 ng·h/mL
C0 (Mouse PK, intravenous): 234 ng/mL
Vd (Mouse PK, intravenous): 2.14 L/kg
half-life (Mouse PK, intravenous): 9.6 min
AUC (Mouse PK, oral 1 mg/kg): 21.8 ng·h/mL
Cmax (Mouse PK, oral 1 mg/kg): 7.2 ng/mL
half-life (Mouse PK, oral 1 mg/kg): 72 min
bioavailability (Mouse PK, oral 1 mg/kg): 18%
Structure (SMILES): CNC(=O)c1ccc(N2CCCN(c3ccnc4sc(C(N)=O)c(N)c34)CC2)cc1 [15v]
IC50 (CDK8/19; [9]): 23.1 nM

AUC(0-t) (in vivo; 16 mg/kg): 2200 ng·h/mL
Structure (SMILES): Cc1cc(N2CCCN(c3ccc(C(=O)N(C)C)cc3)CC2)c2c(N)c(C(N)=O)sc2n1 [compound 6304, 3-amino-4-(4-(4-(dimethylcarbamoyl)phenyl)-1,4-diazepan-1-yl)-6-methylthieno[2,3-b]pyridine-2-carboxamide]
IC50 (CDK8/19; [9]): 13.6 nM

Structure (SMILES): CN1CCN(C(=O)c2ccc3cc(CCNc4ncnc5ccc(C#N)cc45)ccc3c2)CC1 [Senexin B, reference compound]
mouse survival of the metastatic disease [6]: statistically significant but moderate increase in survival
IC50 [3]: 255 nM
MYC-CAP-CR cell growth (MYC-CAP-CR cells [7]): little effect

Structure (SMILES): Cc1ccc(N2CCCN(c3ccnc4sc(C(N)=O)c(N)c34)CC2)cc1 [15n]
IC50 (CDK8/19; [10]): 37.8 nM
ALP activity Assay EC200 [2]: 88.1 nM

PK (AUC 0-8 h) versus undeuterated parent [1]: much improved the PK
AUC(0-t) (in vivo; 16 mg/kg): 770 ng·h/mL
Structure (SMILES): [2H]C([2H])([2H])N(C(=O)Cc1ccc(N2CCCN(c3ccnc4sc(C(N)=O)c(N)c34)CC2)cc1)C([2H])([2H])[2H] [15w_D6, 3-amino-4-(4-(4-(2-(bis(methyl-d3)amino)-2-oxoethyl)phenyl)-1,4-diazepan-1-yl)thieno[2,3-b]pyridine-2-carboxamide]
IC50 (CDK8/19; [9]): 3.8 nM

Structure (SMILES): CN(CCCN)C(=O)c1ccc(N2CCCN(c3ccnc4sc(C(N)=O)c(N)c34)CC2)cc1 [compound 6293]
IC50 (CDK8/19; [9]): 50 nM

Structure (SMILES): CN(C)C(=O)c1ccc(N2CCCN(c3ccnc4[nH]c(C(N)=O)cc34)CC2)cc1 [compound 6284]
IC50 (CDK8/19; [9]): > 1000 nM

Structure (SMILES): NC(=O)c1sc2nccc(N3CCCN(c4ccccc4)CC3)c2c1N [15k]
Elimination rate (Mouse PK, intravenous): 4.59 h⁻¹
AUC (Mouse PK, intravenous): 40.8 ng·h/mL
C0 (Mouse PK, intravenous): 168 ng/mL
Vd (Mouse PK, intravenous): 2.98 L/kg
half-life (Mouse PK, intravenous): 9 min
AUC (Mouse PK, oral 1 mg/kg): 7.6 ng·h/mL
half-life (Mouse PK, oral 1 mg/kg): 18 min
bioavailability (Mouse PK, oral 1 mg/kg): 9%

Structure (SMILES): CNC(=O)c1ccc(N2C(=S)N(c3ccc(C#N)c(C(F)(F)F)c3)C(=O)C2(C)C)cc1F [enzalutamide]
MYC-CaP-CR colony formation (MYC-CAP-CR cells [8]): decreased MYC-CaP-CR colony formation
tumor volume and weight (MYC-CaP-CR tumors): modest effect
MYC-CAP-CR cell growth (MYC-CAP-CR cells [7]): paradoxically stimulated the growth

Structure (SMILES): CN(C)C(=O)c1ccc(N2CCCN(c3ccnc4[nH]c(C(N)=O)c(N)c34)CC2)cc1 [compound 6307]
IC50 (CDK8/19; [9]): > 1000 nM

Structure (SMILES): CN(C)C(=O)c1ccc(N2CCCN(c3ccnc4sc(C#N)c(N)c34)CC2)cc1 [compound 6298]
IC50 (CDK8/19; [9]): 379 nM

Structure (SMILES): CN(C)C(=O)c1ccc(N2CCCN(c3ccnc4sc(C(N)=O)cc34)CC2)cc1 [compound 6296]
IC50 (CDK8/19; [9]): > 1000 nM

AUC(0-t) (in vivo; 30 mg/kg): 210 ng·h/mL
Structure (SMILES): CN1CCN(Cc2ccc(N3CCCN(c4ccnc5sc(C(N)=O)c(N)c45)CC3)cc2)CC1 [compound 6300, 3-amino-4-(4-(4-((4-methylpiperazin-1-yl)methyl)phenyl)-1,4-diazepan-1-yl)thieno[2,3-b]pyridine-2-carboxamide]
IC50 (CDK8/19; [9]): 4.9 nM
